Patent US11497751B2, “Modulators of Rho-associated protein kinase” (Redx Pharma PLC, priority 2018, dated 2022)

target: T1, N-terminal 6His-tagged ROCK2 catalytic domain 11-552 (Homo sapiens, UniProt O75116); assay: ROCK2 binding activity: ROCK2 inhibition, ADP-Glo Kinase Assay; format: biochemical; conditions: 1.25 nM ROCK2, 100 μM long S6 peptide, 20 μM ATP; 1 hour pre-incubation; read-out: ADP-Glo kinase activity assay ROCK2 Category
T1 construct: N-terminal 6His-tagged ROCK2 catalytic domain 11-552; 6His (N); purchased Dundee University, UK; host or cells: baculovirus expression system
T1 sequence (O75116 11-552): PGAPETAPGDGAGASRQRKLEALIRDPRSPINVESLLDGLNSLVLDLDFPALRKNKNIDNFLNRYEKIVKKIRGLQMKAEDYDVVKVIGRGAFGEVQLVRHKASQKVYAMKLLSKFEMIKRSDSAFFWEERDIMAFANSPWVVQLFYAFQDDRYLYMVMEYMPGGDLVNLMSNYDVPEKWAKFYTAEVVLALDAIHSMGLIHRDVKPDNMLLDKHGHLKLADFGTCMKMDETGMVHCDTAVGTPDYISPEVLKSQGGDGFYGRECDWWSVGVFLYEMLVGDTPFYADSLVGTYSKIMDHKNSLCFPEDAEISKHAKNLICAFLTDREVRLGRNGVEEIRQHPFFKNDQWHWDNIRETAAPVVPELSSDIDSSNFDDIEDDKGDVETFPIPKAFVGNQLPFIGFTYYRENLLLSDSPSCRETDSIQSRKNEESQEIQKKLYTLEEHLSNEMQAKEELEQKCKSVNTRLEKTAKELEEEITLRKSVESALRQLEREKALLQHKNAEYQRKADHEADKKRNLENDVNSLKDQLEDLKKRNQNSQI
How it was run: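 1.25 nM baculovirus-expressed ROCK2 pre-incubated 1 h with compound (1% DMSO), then 100 μM long S6 peptide and 20 μM ATP added for 1 h; 50 mM HEPES pH 7.5, 10 mM Mg acetate, 1 mM DTT. ADP-Glo luminescence; IC50 from four-parameter logistic fit.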

Row | Compound | IC50 [nM]
1 | Cn1nc(-c2cccc(C(=O)NCC(F)(F)F)c2)nc1Nc1ccc2[nH]ncc2c1Cl [Example 268] | < 300
2 | Cn1nc(-c2cccc(C(=O)NC3CC3)c2)nc1Nc1ccc2[nH]ncc2c1Cl [Example 269] | < 300
3 | CC(C)NC(=O)c1cccc(-c2nc(Nc3ccc4[nH]ncc4c3Cl)n(C)n2)c1 [Example 270] | < 300
4 | COc1cc(-c2nc(Nc3cc(Cl)c4[nH]ncc4c3)n(C)n2)ccc1C(=O)NC(C)C [Example 271] | < 300
5 | CCNC(=O)c1ccc(-c2nc(Nc3ccc4[nH]ncc4c3C3CC3)n(C)n2)cc1OC [Example 272] | < 300
6 | COc1cc(-c2nc(Nc3ccc4[nH]ncc4c3C3CC3)n(C)n2)ccc1C(=O)NC(C)C [Example 273] | < 300
7 | COc1cc(-c2nc(Nc3ccc4[nH]ncc4c3C3CC3)n(C)n2)ccc1OCC(=O)NC(C)C [Example 274] | < 300
8 | COc1cc(-c2nc(Nc3ccc4[nH]ncc4c3C3CC3)n(C)n2)ccc1C(=O)NC1CN(C)C1 [Example 275] | 300 to 3000
9 | Cc1cc(-c2nc(Nc3ccc4[nH]ncc4c3C3CC3)n(C)n2)ccc1C(=O)NCC(F)(F)F [Example 276] | < 300
10 | CCNC(=O)c1ccc(-c2nc(Nc3ccc4[nH]ncc4c3C3CC3)n(C)n2)cc1C [Example 277] | < 300
11 | COc1cc(C(=O)NCC(F)(F)F)ccc1-c1nc(Nc2ccc3[nH]ncc3c2C2CC2)n(C)n1 [Example 278] | < 300
12 | CCNC(=O)c1ccc(-c2nc(Nc3ccc4[nH]ncc4c3C3CC3)n(C)n2)c(OC)c1 [Example 279] | < 300
13 | COc1cc(-c2nc(Nc3ccc4[nH]ncc4c3C3CC3)n(C)n2)ccc1C(=O)NCC(F)(F)F [Example 280] | < 300
14 | Cn1nc(-c2ccc(C(=O)NC3(C(F)(F)F)CC3)cc2)nc1Nc1ccc2[nH]ncc2c1C1CC1 [Example 281] | < 300
15 | CCC(C)NC(=O)c1ccc(-c2nc(Nc3ccc4[nH]ncc4c3C3CC3)n(C)n2)cc1 (stereo not drawn) [Example 282] | < 300
16 | Cn1nc(-c2ccc(C(=O)NCC3CC3)cc2)nc1Nc1ccc2[nH]ncc2c1C1CC1 [Example 283] | < 300
17 | Cn1nc(-c2ccc(C(=O)NCC(F)(F)CO)cc2)nc1Nc1ccc2[nH]ncc2c1C1CC1 [Example 284] | < 300
18 | Cn1nc(-c2ccc(C(=O)NCCC(F)(F)F)cc2)nc1Nc1ccc2[nH]ncc2c1C1CC1 [Example 285] | < 300

Row | Compound | IC50 [nM]
19 | Cn1nc(-c2ccc(C(=O)NCC(C)(C)O)cc2)nc1Nc1ccc2[nH]ncc2c1C1CC1 [Example 286] | < 300
20 | Cn1nc(-c2ccc(C3=NCC(C)(C)O3)cc2)nc1Nc1ccc2[nH]ncc2c1C1CC1 [Example 287] | < 300
21 | Cn1nc(-c2ccc(C(=O)NC3CC(O)C3)cc2)nc1Nc1ccc2[nH]ncc2c1C1CC1 (stereo not drawn) [Example 288] | < 300
22 | Cn1nc(-c2ccc(C(=O)NCC(C)(C)C)cc2)nc1Nc1ccc2[nH]ncc2c1C1CC1 [Example 289] | < 300
23 | Cn1nc(-c2ccc(C(=O)NCC(C)(C)N)cc2)nc1Nc1ccc2[nH]ncc2c1C1CC1 [Example 291] | 3000 to 10000
24 | Cn1nc(-c2ccc(C(=O)NC3(CO)CC3)cc2)nc1Nc1ccc2[nH]ncc2c1C1CC1 [Example 293] | < 300
25 | Cn1nc(-c2ccc(C(=O)NC3(C)CC3)cc2)nc1Nc1ccc2[nH]ncc2c1C1CC1 [Example 294] | < 300
26 | CC(C)NC(=O)c1ccc(-c2nc(Nc3ccc4[nH]ncc4c3C3CC3)n(C)n2)cc1 [Example 295] | < 300
27 | COC(=O)CNC(=O)c1ccc(-c2nc(Nc3ccc4[nH]ncc4c3C3CC3)n(C)n2)cc1 [Example 296] | 300 to 3000
28 | Cn1nc(-c2ccc(C(=O)NC3CCC(F)(F)C3)cc2)nc1Nc1ccc2[nH]ncc2c1C1CC1 (stereo not drawn) [Example 298] | < 300
29 | Cn1nc(-c2ccc(C(=O)N[C@H]3C[C@@H]3F)cc2)nc1Nc1ccc2[nH]ncc2c1C1CC1 [Example 299] | < 300
30 | Cn1cc(NC(=O)c2ccc(-c3nc(Nc4ccc5[nH]ncc5c4C4CC4)n(C)n3)cc2)cn1 [Example 300] | < 300
31 | COC(=O)[C@@H](NC(=O)c1ccc(-c2nc(Nc3ccc4[nH]ncc4c3C3CC3)n(C)n2)cc1)C(C)C [Example 301] | < 300
32 | COC(=O)[C@H](CC(C)C)NC(=O)c1ccc(-c2nc(Nc3ccc4[nH]ncc4c3C3CC3)n(C)n2)cc1 [Example 302] | < 300
33 | Cn1nc(-c2ccc(C(=O)NC3CCOC3)cc2)nc1Nc1ccc2[nH]ncc2c1C1CC1 (stereo not drawn) [Example 303] | < 300
34 | CC[C@@H](C)[C@H](NC(=O)c1ccc(-c2nc(Nc3ccc4[nH]ncc4c3C3CC3)n(C)n2)cc1)C(=O)OC [Example 304] | < 300
35 | Cn1nc(-c2ccc(C(=O)NC3CCCCC3O)cc2)nc1Nc1ccc2[nH]ncc2c1C1CC1 (stereo not drawn) [Example 305] | < 300
36 | Cn1nc(-c2ccc(C(=O)NCC(N)=O)cc2)nc1Nc1ccc2[nH]ncc2c1C1CC1 [Example 306] | 300 to 3000

Continued, values first:

Row | IC50 [nM] | Compound
37 | 300 to 3000 | Cn1nc(-c2ccc(C(=O)N3CCNC(C(F)(F)F)C3)cc2)nc1Nc1ccc2[nH]ncc2c1C1CC1 (stereo not drawn) [Example 307]
38 | < 300 | Cn1nc(-c2ccc(C(=O)NC3(CO)CCCC3)cc2)nc1Nc1ccc2[nH]ncc2c1C1CC1 [Example 308]
39 | < 300 | CC(C)C[C@@H](CO)NC(=O)c1ccc(-c2nc(Nc3ccc4[nH]ncc4c3C3CC3)n(C)n2)cc1 [Example 309]
40 | < 300 | CCC(CO)NC(=O)c1ccc(-c2nc(Nc3ccc4[nH]ncc4c3C3CC3)n(C)n2)cc1 (stereo not drawn) [Example 310]
41 | < 300 | Cn1nc(-c2ccc(C(=O)NC(CO)C(F)(F)F)cc2)nc1Nc1ccc2[nH]ncc2c1C1CC1 (stereo not drawn) [Example 311]
42 | < 300 | CC1CC1NC(=O)c1ccc(-c2nc(Nc3ccc4[nH]ncc4c3C3CC3)n(C)n2)cc1 (stereo not drawn) [Example 312]
43 | < 300 | CCNC(=O)c1ccc(-c2nc(Nc3ccc4[nH]ncc4c3CC)n(C)n2)cc1OC [Example 313]
44 | < 300 | CCc1c(Nc2nc(-c3ccc(C(=O)NC(C)C)c(OC)c3)nn2C)ccc2[nH]ncc12 [Example 314]
45 | 300 to 3000 | CCc1c(Nc2nc(-c3ccc(C(=O)NC4CN(C)C4)c(OC)c3)nn2C)ccc2[nH]ncc12 [Example 315]
46 | < 300 | CCc1c(Nc2nc(-c3ccc(C(=O)NCC(F)(F)F)c(OC)c3)nn2C)ccc2[nH]ncc12 [Example 316]
47 | < 300 | CCc1c(Nc2nc(-c3ccc(C(=O)NCC(F)F)cc3)nn2C)ccc2[nH]ncc12 [Example 317]
48 | < 300 | CCc1c(Nc2nc(-c3ccc(C(=O)NC(C)C)cc3)nn2C)ccc2[nH]ncc12 [Example 318]
49 | < 300 | CCc1c(Nc2nc(-c3ccc(C(=O)NC4CCC(F)(F)C4)cc3)nn2C)ccc2[nH]ncc12 (stereo not drawn) [Example 319]
50 | < 300 | CCc1c(Nc2nc(-c3ccc(C(=O)NCC(C)C)cc3)nn2C)ccc2[nH]ncc12 [Example 320]
51 | < 300 | CCc1c(Nc2nc(-c3ccc(C(=O)NCC(C)(C)C)cc3)nn2C)ccc2[nH]ncc12 [Example 321]
52 | < 300 | CCc1c(Nc2nc(-c3ccc(C(=O)NC(C)C(F)(F)F)cc3)nn2C)ccc2[nH]ncc12 (stereo not drawn) [Example 322]
53 | < 300 | CCNC(=O)c1ccc(-c2nc(Nc3ccc4[nH]ncc4c3CC)n(C)n2)cc1 [Example 323]

Row | IC50 [nM] | Compound
54 | < 300 | CCNC(=O)c1ccc(-c2nc(Nc3ccc4[nH]ncc4c3)n(C)n2)cc1 [Example 324]
55 | 300 to 3000 | CCNC(=O)c1ccc(-c2nc(Nc3ccc4[nH]ncc4c3)n(C)n2)cc1Cl [Example 325]
56 | < 300 | CCNC(=O)c1ccc(-c2nc(Nc3ccc4[nH]ncc4c3)n(C)n2)cc1F [Example 326]
57 | < 300 | CCNC(=O)c1ccc(-c2nc(Nc3ccc4[nH]ncc4c3)n(C)n2)c(Cl)c1 [Example 327]
58 | 3000 to 10000 | COc1cc(-c2nc(Nc3ccc4[nH]ncc4c3C)n(C)n2)ccc1C(=O)NC1CN(C)C1 [Example 328]
59 | 3000 to 10000 | COc1cc(-c2nc(Nc3ccc4[nH]ncc4c3C)n(C)n2)ccc1C(=O)NCCN(C)C [Example 329]
60 | < 300 | COc1cc(-c2nc(Nc3cnc4[nH]ncc4c3)n(C)n2)ccc1C(=O)NCC(F)(F)F [Example 330]
61 | 300 to 3000 | COc1cc(-c2nc(Nc3cnc4[nH]ncc4c3)n(C)n2)ccc1C(=O)NC(C)C [Example 331]
62 | 3000 to 10000 | COc1cc(-c2nc(Nc3cnc4[nH]ncc4c3)n(C)n2)ccc1C(=O)NC1CC1 [Example 332]
63 | > 10000 | COc1cc(-c2nc(Nc3cc4cn[nH]c4cc3C)n(C)n2)ccc1C(=O)NCC(F)(F)F [Example 335]
64 | < 300 | COc1cc(-c2nc(Nc3ccc4[nH]ncc4c3F)n(C)n2)ccc1C(=O)NC(C)(C)C [Example 336]
65 | < 300 | COCCn1nc(-c2ccc(C(=O)NCC(F)(F)F)c(C)c2)nc1Nc1ccc2[nH]ncc2c1C1CC1 [Example 337]
66 | < 300 | Cn1nc(-c2ccc(C(=O)NCC(C)(F)F)cc2)nc1Nc1ccc2[nH]ncc2c1C1CC1 [Example 338, 4-[5-[(4-cyclopropyl-1H-indazol-5-yl)amino]-1-methyl-1,2,4-triazol-3-yl]-N-(2,2-difluoropropyl)benzamide]
67 | < 300 | Cn1ccc(NC(=O)c2ccc(-c3nc(Nc4ccc5[nH]ncc5c4C4CC4)n(C)n3)cc2)n1 [Example 339]
68 | > 10000 | CCNC(=O)N1CCC(c2nc(Nc3ccc4[nH]ncc4c3C3CC3)n(C)n2)CC1 [Example 340, 4-[5-[(4-cyclopropyl-1H-indazol-5-yl)amino]-1-methyl-1,2,4-triazol-3-yl]-N-ethyl-piperidine-1-carboxamide]
69 | 300 to 3000 | CCNC(=O)N1CC=C(c2nc(Nc3ccc4[nH]ncc4c3C3CC3)n(C)n2)CC1 [Example 341, 4-[5-[(4-cyclopropyl-1H-indazol-5-yl)amino]-1-methyl-1,2,4-triazol-3-yl]-N-ethyl-3,6-dihydro-2H-pyridine-1-carboxamide]
